Results on 9 molecules are retold here after patent US9765105B2, “Macrolide compound” (Pulike Biological Engineering, Inc., priority 2013, dated 2017).

What all share (test): in vitro susceptibility, MIC by mini broth dilution
What all share (type): cell-based
A general note: Dilution methods test growth across graded concentrations, often in twofold steps.

Experiment [1] relates to Staphylococcus aureus CVCC26003. The following applies: strain CVCC26003. The gist of the method: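 MICs were determined by mini broth dilution under NCCLS standards in CAMHB, using revived S. aureus CVCC26003 subcultured 20 h at 35° C. Compounds were two-fold serially diluted in DMSO across 11 wells, with duplicate rows. Bacterial suspension was diluted 1:200 in medium before inoculation.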

Experiment [2] concerns Streptococcus equines CVCC556. The following applies: strain CVCC556. The gist of the method: (§1)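 Following the NCCLS standard, each compound is serially halved in DMSO to give 11 concentrations, run in duplicate alongside a control well. Inocula come from colonies grown 20 h at 35° C and are diluted 1:200 into broth; MIC is taken by mini broth dilution.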
Experiment [3] concerns Actinobacillus pleuropneumoniae CVCC262. The following applies: strain CVCC262. The gist of the method: as §1
In experiment [4] the test system is Haemophilus parasuis. The gist of the method: as §1
Experiment [5] relates to Pasteurella multocida CVCC399. The conditions noted are these: strain CVCC399. The gist of the method:
as §1

With `CC[C@H]1OC(=O)[C@H](C)[C@@H](O[C@H]2C[C@@](C)(OC)[C@](O)(CNc3cc(OC)cc(OC)c3)[C@H](C)O2)[C@H](C)[C@@H](O[C@@H]2O[C@H](C)C[C@H](N(C)C)[C@H]2O)[C@](C)(O)C[C@@H](C)NC[C@H](C)[C@@H](O)[C@]1(C)O` [syzx-76, (2R,3S,4R,5S,8R,10R,11R,12S,13S,14R)-13-[(2,6-dideoxy-3-C-methyl-3-O-methyl-4-C-[(3,5-dimethoxyphenyl-amino)-methyl]-α-L-ribopyranosyl)oxy]-2-ethyl-3,4,10-trihydroxy-3,5,8,10,12,14-hexamethyl-11-[[3,4,6-trideoxy-3-(dimethylamino)-β-D-xylo-hexopyranosy]oxy]-1-oxa-7-azacyclopentadecan-15-one], the “MIC values, Staphylococcus aureus CVCC26003” value in experiment [1] was 2 ug/mi. Further, the “MIC values, Streptococcus equines CVCC556” value in experiment [2] is given as 2 ug/mi. The “MIC values, Actinobacillus pleuropneumoniae CVCC262” value in experiment [3] stood at 64 ug/mi. Also, in experiment [4], the “MIC values, Haemophilus parasuis” value came out at 1 ug/mi. Also, the “MIC values, Pasteurella multocida CVCC399” value in experiment [5] is recorded as 4 ug/mi.
In the case of `CCC1OC(=O)C(C)C(OC2CC(C)(OC)C(O)(CNCc3ccc(C)o3)C(C)O2)C(C)C(OC2OC(C)CC(N(C)C)C2O)C(C)(O)CC(C)NCC(C)C(O)C1(C)O` [syzx-78, (2R,3S,4R,5S,8R,10R,11R,12S,13S,14R)-13-[(2,6-dideoxy-3-C-methyl-3-O-methyl-4-C-[(5-methylfurfurylamino)-methyl]-α-L-ribopyranosyl)oxy]-2-ethyl-3,4,10-trihydroxy-3,5,8,10,12,14-hexamethyl-11-[[3,4,6-trideoxy-3-(dimethylamino)-β-D-xylo-hexopyranosy]oxy]-1-oxa-7-azacyclopentadecan-15-one], the “MIC values, Staphylococcus aureus CVCC26003” value in experiment [1] was 0.25 ug/mi. Also, in experiment [2], the “MIC values, Streptococcus equines CVCC556” value came to 0.25 ug/mi. Moreover, in experiment [3], the “MIC values, Actinobacillus pleuropneumoniae CVCC262” value is given as 2 ug/mi. Further, in experiment [4], the “MIC values, Haemophilus parasuis” value was determined as 0.25 ug/mi. The “MIC values, Pasteurella multocida CVCC399” value in experiment [5] turned out to be 0.5 ug/mi.
Regarding `CC[C@H]1OC(=O)[C@H](C)[C@@H](O[C@H]2C[C@@](C)(OC)[C@](O)(C=NNc3ccc(F)cc3)[C@H](C)O2)[C@H](C)[C@@H](O[C@@H]2O[C@H](C)C[C@H](N(C)C)[C@H]2O)[C@](C)(O)C[C@@H](C)NC[C@H](C)[C@@H](O)[C@]1(C)O` [syzx-81, (2R,3S,4R,5S,8R,10R,11R,12S,13S,14R)-13-[(2,6-dideoxy-3-C-methyl-3-O-methyl-4-C-[(4-fluoro-phenylhydrazono)-methyl]-α-L-ribopyranosyl)oxy]-2-ethyl-3,4,10-trihydroxy-3,5,8,10,12,14-hexamethyl-11-[[3,4,6-trideoxy-3-(dimethylamino)-β-D-xylo-hexopyranosy]oxy]-1-oxa-7-azacyclopentadecan-15-one], the “MIC values, Staphylococcus aureus CVCC26003” value in experiment [1] is “≦0.25 ug/mi”. For the same molecule, the “MIC values, Streptococcus equines CVCC556” value in experiment [2] was “≦0.25 ug/mi”. Further, the “MIC values, Actinobacillus pleuropneumoniae CVCC262” value in experiment [3] was found to be 2 ug/mi. The “MIC values, Haemophilus parasuis” value in experiment [4] is “≦0.25 ug/mi”. For the same molecule, the “MIC values, Pasteurella multocida CVCC399” value in experiment [5] amounted to 0.25 ug/mi.
Consider `CC[C@H]1OC(=O)[C@H](C)[C@@H](O[C@H]2C[C@@](C)(OC)[C@](O)(CNOCc3ccccc3)[C@H](C)O2)[C@H](C)[C@@H](O[C@@H]2O[C@H](C)C[C@H](N(C)C)[C@H]2O)[C@](C)(O)C[C@@H](C)NC[C@H](C)[C@@H](O)[C@]1(C)O` [syzx-82, (2R,3S,4R,5S,8R,10R,11R,12S,13S,14R)-13-[(2,6-dideoxy-3-C-methyl-3-O-methyl-4-C-[(benzyloxy-amino)-methyl]-α-L-ribopyranosyl)oxy]-2-ethyl-3,4,10-trihydroxy-3,5,8,10,12,14-hexamethyl-11-[[3,4,6-trideoxy-3-(dimethylamino)-β-D-xylo-hexopyranosy]oxy]-1-oxa-7-azacyclopentadecan-15-one], for which the “MIC values, Staphylococcus aureus CVCC26003” value in experiment [1] came out at 0.5 ug/mi. The “MIC values, Streptococcus equines CVCC556” value in experiment [2] is “≦0.25 ug/mi”. Further, the “MIC values, Actinobacillus pleuropneumoniae CVCC262” value in experiment [3] was determined as 16 ug/mi. In addition, the “MIC values, Haemophilus parasuis” value in experiment [4] is “≦0.25 ug/mi”. Further, in experiment [5], the “MIC values, Pasteurella multocida CVCC399” value turned out to be 1 ug/mi.
As for `CC[C@H]1OC(=O)[C@H](C)[C@@H](O[C@H]2C[C@@](C)(OC)[C@](O)(CNc3ccc(OC)cc3)[C@H](C)O2)[C@H](C)[C@@H](O[C@@H]2O[C@H](C)C[C@H](N(C)C)[C@H]2O)[C@](C)(O)C[C@@H](C)NC[C@H](C)[C@@H](O)[C@]1(C)O` [syzx-83, (2R,3S,4R,5S,8R,10R,11R,12S,13S,14R)-13-[(2,6-dideoxy-3-C-methyl-3-O-methyl-4-C-[(p-methoxyphenyl-amino)-methyl]-α-L-ribopyranosyl)oxy]-2-ethyl-3,4,10-trihydroxy-3,5,8,10,12,14-hexamethyl-11-[[3,4,6-trideoxy-3-(dimethylamino)-β-D-xylo-hexopyranosy]oxy]-1-oxa-7-azacyclopentadecan-15-one], in experiment [1], the “MIC values, Staphylococcus aureus CVCC26003” value is 0.5 ug/mi. Moreover, in experiment [2], the “MIC values, Streptococcus equines CVCC556” value worked out at 0.5 ug/mi. In addition, the “MIC values, Actinobacillus pleuropneumoniae CVCC262” value in experiment [3] came to 2 ug/mi. The “MIC values, Haemophilus parasuis” value in experiment [4] was 0.25 ug/mi. Besides, the “MIC values, Pasteurella multocida CVCC399” value in experiment [5] was found to be 0.25 ug/mi.
As for `CC[C@H]1OC(=O)[C@H](C)[C@@H](O[C@H]2C[C@@](C)(OC)[C@](O)(CNc3ccc(C)c(C)c3)[C@H](C)O2)[C@H](C)[C@@H](O[C@@H]2O[C@H](C)C[C@H](N(C)C)[C@H]2O)[C@](C)(O)C[C@@H](C)NC[C@H](C)[C@@H](O)[C@]1(C)O` [syzx-84, (2R,3S,4R,5S,8R,10R,11R,12S,13S,14R)-13-[(2,6-dideoxy-3-C-methyl-3-O-methyl-4-C-[(3,4-dimethylphenyl-amino)-methyl]-α-L-ribopyranosyl)oxy]-2-ethyl-3,4,10-trihydroxy-3,5,8,10,12,14-hexamethyl-11-[[3,4,6-trideoxy-3-(dimethylamino)-β-D-xylo-hexopyranosy]oxy]-1-oxa-7-azacyclopentadecan-15-one], the “MIC values, Staphylococcus aureus CVCC26003” value in experiment [1] was “≦0.25 ug/mi”. Moreover, the “MIC values, Streptococcus equines CVCC556” value in experiment [2] is “≦0.25 ug/mi”. In experiment [3], the “MIC values, Actinobacillus pleuropneumoniae CVCC262” value was 2 ug/mi. In addition, the “MIC values, Haemophilus parasuis” value in experiment [4] is reported as “≦0.25 ug/mi”. Also, the “MIC values, Pasteurella multocida CVCC399” value in experiment [5] was 0.25 ug/mi.
On to `CC[C@H]1OC(=O)[C@H](C)[C@@H](O[C@H]2C[C@@](C)(OC)[C@](O)(CNc3ccc(F)cn3)[C@H](C)O2)[C@H](C)[C@@H](O[C@@H]2O[C@H](C)C[C@H](N(C)C)[C@H]2O)[C@](C)(O)C[C@@H](C)NC[C@H](C)[C@@H](O)[C@]1(C)O` [syzx-86, (2R,3S,4R,5S,8R,10R,11R,12S,13S,14R)-13-[(2,6-dideoxy-3-C-methyl-3-O-methyl-4-C-[(5-fluoropyridin-2-yl-amino)-methyl]-α-L-ribopyranosyl)oxy]-2-ethyl-3,4,10-trihydroxy-3,5,8,10,12,14-hexamethyl-11-[[3,4,6-trideoxy-3-(dimethylamino)-β-D-xylo-hexopyranosy]oxy]-1-oxa-7-azacyclopentadecan-15-one], for which, in experiment [1], the “MIC values, Staphylococcus aureus CVCC26003” value is reported as “≦0.25 ug/mi”. For the same molecule, in experiment [2], the “MIC values, Streptococcus equines CVCC556” value is “≦0.25 ug/mi”. Besides, in experiment [3], the “MIC values, Actinobacillus pleuropneumoniae CVCC262” value stood at 2 ug/mi. Further, in experiment [4], the “MIC values, Haemophilus parasuis” value is recorded as “≦0.25 ug/mi”. Further, the “MIC values, Pasteurella multocida CVCC399” value in experiment [5] was 0.25 ug/mi.
`CC[C@H]1OC(=O)[C@H](C)[C@@H](O[C@H]2C[C@@](C)(OC)[C@](O)(CNCCN3CCCC3)[C@H](C)O2)[C@H](C)[C@@H](O[C@@H]2O[C@H](C)C[C@H](N(C)C)[C@H]2O)[C@](C)(O)C[C@@H](C)NC[C@H](C)[C@@H](O)[C@]1(C)O` [syzx-90]: the “MIC values, Staphylococcus aureus CVCC26003” value in experiment [1] was found to be 2 ug/mi. Also, the “MIC values, Streptococcus equines CVCC556” value in experiment [2] is 0.5 ug/mi. Also, in experiment [3], the “MIC values, Actinobacillus pleuropneumoniae CVCC262” value was determined as 0.5 ug/mi. The “MIC values, Haemophilus parasuis” value in experiment [4] amounted to 2 ug/mi. For the same molecule, the “MIC values, Pasteurella multocida CVCC399” value in experiment [5] was 2 ug/mi.
On to `CC[C@H]1OC(=O)[C@H](C)[C@@H](O[C@H]2C[C@@](C)(OC)[C@](O)(CNCCc3ccncc3)[C@H](C)O2)[C@H](C)[C@@H](O[C@@H]2O[C@H](C)C[C@H](N(C)C)[C@H]2O)[C@](C)(O)C[C@@H](C)NC[C@H](C)[C@@H](O)[C@]1(C)O` [syzx-91, (2R,3S,4R,5S,8R,10R,11R,12S,13S,14R)-13-[(2,6-dideoxy-3-C-methyl-3-O-methyl-4-C-[(2-pyridin-4-yl-ethylamino)-methyl]-α-L-ribopyranosyl)oxy]-2-ethyl-3,4,10-trihydroxy-3,5,8,10,12,14-hexamethyl-11-[[3,4,6-trideoxy-3-(dimethylamino)-β-D-xylo-hexopyranosy]oxy]-1-oxa-7-azacyclopentadecan-15-one], for which the “MIC values, Staphylococcus aureus CVCC26003” value in experiment [1] was 4 ug/mi. In addition, the “MIC values, Streptococcus equines CVCC556” value in experiment [2] is recorded as 1 ug/mi. Also, the “MIC values, Actinobacillus pleuropneumoniae CVCC262” value in experiment [3] is given as 2 ug/mi. For the same molecule, the “MIC values, Haemophilus parasuis” value in experiment [4] is recorded as 2 ug/mi. For the same molecule, in experiment [5], the “MIC values, Pasteurella multocida CVCC399” value came out at 2 ug/mi.
